Reference: patent US8268827B2, “Pyridazinone derivatives as PARP inhibitors” (Istituto di Ricerche di Biologia Molecolare P. Angeletti …, priority 2007, dated 2012)
Structures can show the parent of a compound that is named as a salt.

Tested on: BRCA-1 silenced HeLa cells (HeLa shBRCA1-GFP)
Test: Proliferation assay in BRCA-1 silenced HeLa cells
Type: cell-based
Settings: Homo sapiens; BRCA1 silenced HeLa cells, 168 hours; read-out: CC50 in the BRCA1 silenced HeLa cells
Description: Proliferation Assay in BRCA-1 Silenced HeLa Cells
Compounds of the present invention were also tested in an anti-proliferative assay in matched pair BRCA1 wt and BRCA1-(shRNA) HeLa cells.
The assay is based on the ability of living cells to convert a redox dye (resazurin) into a fluorescent end product (resofurin). The amount of resofurin produced is directly proportional to the cell number.
HeLa shBRCA1-GFP—These are HeLa cells transduced at an MOI of 100 with a Lentivirus containing a shRNA against BRCA-1 and an expression cassette for GFP. BRCA-1 silencing is more than 80% as assessed by Taqman analysis and the cells stably express GFP.
HeLa THM-GFP—These are HeLa cells transduced at an MOI of 100 with a control vector not expressing any shRNA.
• Seed 300 cell/well in 96 wells viewplate black in 90 ul culture Medium*: • Incubate 4 hours at 37° C., 5% CO2 • Add 10 ul/well of 10× compound (5% DMSO in H2O) • Incubate for 168 hours at 37° C., 5% CO2 • Add 10 ul of Celltiter Blue solution (Promega, G8081) pre-diluted 1:1 in PBS1× • Incubate the mixture for 45′ at 37° C., 5% CO2 • Incubate 15′ at RT in the dark • Read plate at fluorimeter ex: 550 nm; em: 590 nm *Culture Medium: DMEM (GIBCO, 41966-029), 10% FCS (GIBCO, 10106-169), 0.1 mg/ml Penicillin-Streptomycin (GIBCO, 15140-114), 2 mM L-Glutamine (GIBCO, 3042190)

SMILES	CC50
Cc1c(Cc2ccc(F)c(C(=O)N3CCN(C4CCCc5ccccc54)C(=O)C3)c2)n[nH]c(=O)c1C (stereo not shown) [Example 99, 6-(4-fluoro-3-{[3-oxo-4-(1,2,3,4-tetrahydronaphthalen-1-yl)piperazin-1-yl]carbonyl}benzyl)-4,5-dimethyl-3-oxo-2,3-dihydropyridazin-1-ium trifluoroacetate]	< 50 nM
Cc1c(Cc2ccc(F)c(C(=O)N3CCN(c4cc(F)cc(F)c4)C(=O)C3)c2)n[nH]c(=O)c1C [Example 12, 6-(3-{[4-(3,5-Difluorophenyl)-3-oxopiperazin-1-yl]carbonyl}-4-fluorobenzyl)-4,5-dimethyl-3-oxo-2,3-dihydropyridazin-1-ium trifluoroacetate]	< 50 nM
CCN1CCN(C(=O)c2cc(Cc3n[nH]c(=O)c(C)c3C)ccc2F)CC1=O [Example 17, 6-{3-[(4-Ethyl-3-oxopiperazin-1-yl)carbonyl]-4-fluorobenzyl}-4,5-dimethylpyridazin-3(2H)-one trifluoroacetate]	50 to 500 nM
Cc1c(Cc2ccc(F)c(C(=O)N3CC(=O)N(C4CCC(F)(F)C4)C(C)C3)c2)n[nH]c(=O)c1C (stereo not shown) [Example 127, 6-(3-{[4-(3,3-Difluorocyclopentyl)-3-methyl-5-oxopiperazin-1-yl]carbonyl}-4-fluorobenzyl)-4,5-dimethylpyridazin-3(2H)-one trifluoroacetate]	< 50 nM
Cc1c(Cc2ccc(F)c(C(=O)N3CCN(C4CCC(c5ccccc5)C4)C(=O)C3)c2)n[nH]c(=O)c1C (stereo not shown) [Example 119, 6-(4-fluoro-3-{[3-oxo-4-(3-phenylcyclopentyl)piperazin-1-yl]carbonyl}benzyl)-4,5-dimethyl-3-oxo-2,3-dihydropyridazin-1-ium trifluoroacetate]	< 50 nM
COC[C@H](C)N1CCN(C(=O)c2cc(Cc3n[nH]c(=O)c(C)c3C)ccc2F)CC1=O [Example 169, 6-[4-Fluoro-3-({4-[(1S)-2-methoxy-1-methylethyl]-3-oxopiperazin-1-yl}carbonyl)benzyl]-4,5-dimethylpyridazin-3(2H)-one]	< 5000 nM
CCc1cc(Cc2ccc(F)c(C(=O)N3CCN(C4CCCC4)C(=O)C3)c2)n[nH]c1=O [Example 30, 3-{3-[(4-Cyclopentyl-3-oxopiperazin-1-yl)carbonyl]-4-fluorobenzyl}-5-ethyl-6-oxo-1,6-dihydropyridazin-1-ium trifluoroacetate]	< 50 nM
CCc1cc(Cc2ccc(F)c(C(=O)N3CCN([C@H]4CCc5ccccc5C4)C(=O)C3)c2)n[nH]c1=O [Example 159, 4-ethyl-6-[4-fluoro-3-({3-oxo-4-[(2S)-1,2,3,4-tetrahydronaphthalen-2-yl]piperazin-1-yl}carbonyl)benzyl]pyridazin-3(2H)-one]	< 50 nM
Cc1c(Cc2ccc(F)c(C(=O)N3CCN(C(C)C4CC4)C(=O)C3)c2)n[nH]c(=O)c1C (stereo not shown) [Example 204, 6-(3-{[4-(1-Cyclopropylethyl)-3-oxopiperazin-1-yl]carbonyl}-4-fluorobenzyl)-4,5-dimethylpyridazin-3(2H)-one]	50 to 500 nM
Cc1c(Cc2ccc(F)c(C(=O)N3CC(=O)N(c4cccc(Cl)c4)C(C)C3)c2)n[nH]c(=O)c1C (stereo not shown) [Example 165, 6-(3-{[4-(3-Chlorophenyl)-3-methyl-5-oxopiperazin-1-yl]carbonyl}-4-fluorobenzyl)-4,5-dimethylpyridazin-3(2H)-one]	< 50 nM
Cc1c(Cc2ccc(F)c(C(=O)N3CC(=O)N(C4CC(F)(F)C4)C(C)C3)c2)n[nH]c(=O)c1C (stereo not shown) [Example 188, 6-(3-{[4-(3,3-Difluorocyclobutyl)-3-methyl-5-oxopiperazin-1-yl]carbonyl}-4-fluorobenzyl)-4,5-dimethylpyridazin-3(2H)-one]	< 50 nM
Cc1c(Cc2ccc(F)c(C(=O)N3CCN(C4CCCCC4)C(=O)C3)c2)n[nH]c(=O)c1C [Example 2, 6-{3-[(4-Cyclohexyl-3-oxopiperazin-1-yl)carbonyl]-4-fluorobenzyl}-4,5-dimethyl-3-oxo-2,3-dihydropyridazin-1-ium trifluoroacetate]	< 50 nM
Cc1c(Cc2ccc(F)c(C(=O)N3CCN(c4ccccc4Cl)C(=O)C3)c2)n[nH]c(=O)c1C [Example 14, 6-(3-{[4-(2-Chlorophenyl)-3-oxopiperazin-1-yl]carbonyl}-4-fluorobenzyl)-4,5-dimethyl-3-oxo-2,3-dihydropyridazin-1-ium trifluoroacetate]	50 to 500 nM
Cc1c(Cc2ccc(F)c(C(=O)N3CCN(c4ccc(Cl)cc4)C(=O)C3)c2)n[nH]c(=O)c1C [Example 13, 6-(3-{[4-(4-Chlorophenyl)-3-oxopiperazin-1-yl]carbonyl}-4-fluorobenzyl)-4,5-dimethyl-3-oxo-2,3-dihydropyridazin-1-ium trifluoroacetate]	< 50 nM
Cc1c(Cc2ccc(F)c(C(=O)N3CC(=O)N(c4ccc(C#N)cc4)[C@@H](C)C3)c2)n[nH]c(=O)c1C [Example 166, 4-((2S)-4-{5-[(4,5-Dimethyl-6-oxo-1,6-dihydropyridazin-3-yl)methyl]-2-fluorobenzoyl}-2-methyl-6-oxopiperazin-1-yl)benzonitrile]	< 50 nM
Cc1c(Cc2ccc(F)c(C(=O)N3CC(=O)N(C4COc5ccccc5C4)C(C)C3)c2)n[nH]c(=O)c1C (stereo not shown) [Example 132, 6-(3-{[4-(3,4-Dihydro-2H-chromen-3-yl)-3-methyl-5-oxopiperazin-1-yl]carbonyl}-4-fluorobenzyl)-4,5-dimethylpyridazin-3(2H)-one trifluoroacetate]	< 50 nM
COc1ccc(CN2CCN(C(=O)c3cc(Cc4n[nH]c(=O)c(C)c4C)ccc3F)CC2=O)cc1 [Example 20, 6-(4-Fluoro-3-{[4-(4-methoxybenzyl)-3-oxopiperazin-1-yl]carbonyl}benzyl)-4,5-dimethylpyridazin-3(2H)-one trifluoroacetate]	50 to 500 nM
Cc1c(Cc2ccc(F)c(C(=O)N3CC(=O)N([C@H]4CCOC4)[C@@H](C)C3)c2)n[nH]c(=O)c1C (single isomer, unassigned) [75 (II4B)]	< 50 nM
CCC1CN(C(=O)c2cc(Cc3n[nH]c(=O)c(C)c3C)ccc2F)CC(=O)N1C1CCC1 (stereo not shown) [Example 164, 6-{3-[(4-Cyclobutyl-3-ethyl-5-oxopiperazin-1-yl)carbonyl]-4-fluorobenzyl}-4,5-dimethylpyridazin-3(2H)-one]	50 to 500 nM
Cc1c(Cc2ccc(F)c(C(=O)N3CCN(c4ccccc4C(F)(F)F)C(=O)C3)c2)n[nH]c(=O)c1C [Example 15, 6-[4-Fluoro-3-({3-oxo-4-[2-(trifluoromethyl)phenyl]piperazin-1-yl}carbonyl)benzyl]-4,5-dimethyl-3-oxo-2,3-dihydropyridazin-1-ium trifluoroacetate]	< 50 nM
CC[C@@H](C)N1CCN(C(=O)c2cc(Cc3n[nH]c(=O)c(C)c3C)ccc2F)CC1=O [Example 168, 6-[4-Fluoro-3-({4-[(1R)-1-methylpropyl]-3-oxopiperazin-1-yl}carbonyl)benzyl]-4,5-dimethylpyridazin-3(2H)-one]	< 50 nM
Cc1c(Cc2ccc(F)c(C(=O)N3CCN(C4COC5(CCCCC5)C4)C(=O)C3)c2)n[nH]c(=O)c1C (stereo not shown) [Example 107, 6-(4-Fluoro-3-{[4-(1-oxaspiro[4.5]dec-3-yl)-3-oxopiperazin-1-yl]carbonyl}benzyl)-4,5-dimethylpyridazin-3(2H)-one trifluoroacetate]	50 to 500 nM
Cc1c(Cc2ccc(F)c(C(=O)N3CC(=O)N4[C@H](CCC[C@H]4C)C3)c2)n[nH]c(=O)c1C (single isomer, unassigned) [86 (TT2)]	50 to 500 nM
Cc1c(Cc2ccc(F)c(C(=O)N3CCN(c4ccc(F)c(Cl)c4)C(=O)C3)c2)n[nH]c(=O)c1C [Example 10, 6-(3-{[4-(3-Chloro-4-fluorophenyl)-3-oxopiperazin-1-yl]carbonyl}-4-fluorobenzyl)-4,5-dimethyl-3-oxo-2,3-dihydropyridazin-1-ium trifluoroacetate]	< 50 nM
Cc1c(Cc2ccc(F)c(C(=O)N3CCN(c4cncs4)C(=O)C3)c2)n[nH]c(=O)c1C [Example 63, 3-(4-Fluoro-3-{[3-oxo-4-(1,3-thiazol-5-yl)piperazin-1-yl]carbonyl}benzyl)-4,5-dimethyl-6-oxo-1,6-dihydropyridazin-1-ium trifluoroacetate]	< 50 nM
Cc1c(Cc2cc(C(=O)N3CCN(C4CCCC4)C(=O)C3)c(F)cc2Br)n[nH]c(=O)c1C [Example 83, 6-{2-Bromo-5-[(4-cyclopentyl-3-oxopiperazin-1-yl)carbonyl]-4-fluorobenzyl}-4,5-dimethylpyridazin-3(2H)-one]	< 50 nM
Cc1c(Cc2ccc(F)c(C(=O)N3CCN(CCc4ccccc4)C(=O)C3)c2)n[nH]c(=O)c1C [Example 21, 6-(4-Fluoro-3-{[3-oxo-4-(2-phenylethyl)piperazin-1-yl]carbonyl}benzyl)-4,5-dimethylpyridazin-3(2H)-one trifluoroacetate]	50 to 500 nM
Cc1c(Cc2ccc(F)c(C(=O)N3CCN(c4cncc(C(F)(F)F)c4)C(=O)C3)c2)n[nH]c(=O)c1C [Example 65, 3-[4-Fluoro-3-({3-oxo-4-[5-(trifluoromethyl)pyridin-3-yl]piperazin-1-yl}carbonyl)benzyl]-4,5-dimethyl-6-oxo-1,6-dihydropyridazin-1-ium trifluoroacetate]	50 to 500 nM
